According to patent US20220315554A1, “COMPOUNDS COMPRISING A […] LIGAND AND USE THEREOF” (priority 2019, published 2022):
Numbered stars: 1 amine (or outer) side, 2 acyl side, 3 side chain; on linkers, the order of the positions; unused ones are H or OH. Bridge positions count the residues as written; N and C are the ends. Square brackets hold non-standard residues; d marks the D form. Peptide text beside a SMILES is read from it. * marks the point of attachment. X40 = NCCNCC(CNCCN)C(=O)NCCS(=O)(=O)CCN*; mXylylene = c1cc(C[*:1])cc(C[*:2])c1; Suc = O=C(CCC(=O)[*:2])[*:1]; Nle = CCCC[C@H](N)C(=O)O; Octanoyl = CCCCCCCC(=O)*

Legend:
[1] = molecular target: T1, FAP-expressing human WI-38 fibroblasts (Homo sapiens, UniProt Q12884); assay: Competitive FACS binding assay; conditions: pIC50 Category (FACS), competition with 3 nM Cy5-labeled compound, 4° C., 1 hour
T1 construct: FAP-expressing human WI-38 fibroblasts (ECACC) were cultured in EMEM; host or cells: WI-38 human fibroblasts
T1 sequence (Q12884 1-760): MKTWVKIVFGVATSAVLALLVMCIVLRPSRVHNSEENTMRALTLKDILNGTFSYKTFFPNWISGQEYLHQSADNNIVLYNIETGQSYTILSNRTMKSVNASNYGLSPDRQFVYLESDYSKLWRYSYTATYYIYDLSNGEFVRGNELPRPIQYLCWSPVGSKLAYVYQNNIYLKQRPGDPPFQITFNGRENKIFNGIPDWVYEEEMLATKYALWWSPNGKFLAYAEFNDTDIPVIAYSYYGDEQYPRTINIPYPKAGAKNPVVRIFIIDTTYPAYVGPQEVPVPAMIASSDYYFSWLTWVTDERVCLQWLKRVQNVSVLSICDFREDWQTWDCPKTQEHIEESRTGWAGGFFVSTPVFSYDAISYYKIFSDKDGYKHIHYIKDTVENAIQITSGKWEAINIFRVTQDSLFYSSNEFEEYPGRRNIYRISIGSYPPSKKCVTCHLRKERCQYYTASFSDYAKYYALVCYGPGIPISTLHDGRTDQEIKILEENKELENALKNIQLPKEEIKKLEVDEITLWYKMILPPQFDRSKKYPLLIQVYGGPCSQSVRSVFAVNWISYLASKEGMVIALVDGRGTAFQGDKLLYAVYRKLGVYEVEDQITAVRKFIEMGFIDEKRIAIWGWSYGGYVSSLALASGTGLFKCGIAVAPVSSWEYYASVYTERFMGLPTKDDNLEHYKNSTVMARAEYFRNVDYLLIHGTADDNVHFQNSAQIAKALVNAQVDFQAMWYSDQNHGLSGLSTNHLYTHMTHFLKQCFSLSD
Protocol: Cells were analyzed in an Attune NxT flow cytometer. […]

Human recombinant FAP = molecular target: T2, Human recombinant FAP (Homo sapiens, UniProt Q12884); assay: FRET-based FAP protease activity assay; format: biochemical; set-up: purchased R&D systems 3715-SE; conditions: pIC50 Category (Activity), FRET substrate, 37° C.
T2 sequence (Q12884 1-760): T1 sequence (Q12884 1-760)

| SMILES | IC50 [1] [nM] | IC50 (Human recombinant FAP) [nM] | IC50 ([1]; WI-38 fibroblasts) [nM] | IC50 (Human recombinant FAP; recombinant human FAP) [nM] |
| --- | --- | --- | --- | --- |
| CCCCCC(=O)N[C@H]1CSCc2cc(CSCCNC(=O)CCP(=O)(O)CN3CCN(CP(=O)(O)CO)CCN(CP(=O)(O)CO)CC3)cc(c2)CSC[C@@H](C(=O)O)NC(=O)[C@H](Cc2ccccc2)NC(=O)[C@H](CCC(N)=O)NC(=O)[C@H]([C@@H](C)O)NC(=O)[C@@H]2CCCN2C(=O)[C@@H]2CCCN2C1=O [3BP-4380, Hex-[Cys-(tMeBn(NOPO-AET))-Pro-Pro-Thr-Gln-Phe-Cys]-OH] | < 10 | < 10 |  |  |
| CCCCCC(=O)N[C@H]1CSCc2cc(CSCCNC(=O)CN(CCN(CC(=O)O)CC(=O)O)CCN(CC(=O)O)CC(=O)O)cc(c2)CSC[C@@H](C(=O)O)NC(=O)[C@H](Cc2ccccc2)NC(=O)[C@H](CCC(N)=O)NC(=O)[C@H]([C@@H](C)O)NC(=O)[C@@H]2CCCN2C(=O)[C@@H]2CCCN2C1=O [3BP-4214, Hex-[Cys-(tMeBn(DTPA-AET))-Pro-Pro-Thr-Gln-Phe-Cys]-OH] | 10 to 79.4 | 10 to 79.4 |  |  |
| CCCCCCCC(=O)N[C@H]1CSCc2cccc(c2)CSC[C@@H](C(=O)N[C@@H](CC(=O)O)C(N)=O)NC(=O)[C@H](Cc2ccccc2)NC(=O)[C@H](CCC(N)=O)NC(=O)[C@H]([C@@H](C)O)NC(=O)[C@@H]2CCCN2C(=O)[C@@H]2CCCN2C1=O [3BP-3417, Oct-[Cys(3MeBn)-Pro-Pro-Thr-Gln-Phe-Cys]-Asp-NH2] (Octanoyl-CPPTQFCD-NH2; linker 1-7 via mXylylene) |  |  | 10 to 79.4 | 10 to 79.4 |
| CCCCCC(=O)N[C@H]1CSCc2cc(CSCCNC(=O)CCC(=O)NCCCOCCOCCOCCCNC(=O)C(CNCCN)CNCCN)cc(c2)CSC[C@@H](C(=O)O)NC(=O)[C@H](Cc2ccccc2)NC(=O)[C@H](CCC(N)=O)NC(=O)[C@H]([C@@H](C)O)NC(=O)[C@@H]2CCCN2C(=O)[C@@H]2CCCN2C1=O [3BP-4299, Hex-[Cys-(tMeBn(N4Ac-Ttds-AET))-Pro-Pro-Thr-Gln-Phe-Cys]-OH] | < 10 | < 10 |  |  |
| CCCC[C@H](NC(=O)CCC(=O)NCCS(=O)(=O)CCNC(=O)C(CNCCN)CNCCN)C(=O)N[C@H]1CSCc2cccc(c2)CSC[C@@H](C(=O)O)NC(=O)[C@H](Cc2ccccc2)NC(=O)[C@H](CCC(=O)O)NC(=O)[C@H]([C@@H](C)O)NC(=O)[C@@H]2CCCN2C(=O)[C@@H]2CCCN2C1=O [3BP-4243, N4Ac-Efa-Nle-[Cys-(3MeBn)-Pro-Pro-Thr-Glu-Phe-Cys]-OH] ({X40-Suc}-[Nle]CPPTEFC-OH; linker 2-8 via mXylylene) | 10 to 79.4 | 10 to 79.4 |  |  |
| CSCC[C@H](NC(C)=O)C(=O)N[C@H]1CSCc2cccc(c2)CSC[C@@H](C(=O)N[C@@H](CC(=O)O)C(=O)N[C@@H](Cc2c[nH]cn2)C(=O)N[C@@H](Cc2ccccc2)C(=O)N[C@@H](CCCNC(=N)N)C(=O)N[C@@H](CC(=O)O)C(N)=O)NC(=O)[C@H](Cc2ccccc2)NC(=O)[C@H](CCC(=O)O)NC(=O)[C@@H]([C@H](C)O)NC(=O)[C@@H]2CCCN2C(=O)[C@@H]2CCCN2C1=O [3BP-3178, Ac-Met-[Cys(3MeBn)-Pro-Pro-thr-Glu-Phe-Cys]-Asp-His-Phe-Arg-Asp-NH2] (Ac-MCPP[dT]EFCDHFRD-NH2; linker 2-8 via mXylylene) |  |  | 10 to 79.4 | 10 to 79.4 |
| CSCC[C@H](NC(C)=O)C(=O)N[C@H]1CSCc2cccc(c2)CSC[C@@H](C(=O)N[C@@H](CC(=O)O)C(=O)N[C@@H](Cc2c[nH]cn2)C(=O)N[C@@H](Cc2ccccc2)C(=O)N[C@@H](CCCNC(=N)N)C(=O)N[C@@H](CC(=O)O)C(N)=O)NC(=O)[C@H](Cc2ccccc2)NC(=O)[C@H](CCC(=O)O)NC(=O)[C@H]([C@@H](C)O)NC(=O)[C@@H]2CCCN2C(=O)CNC1=O [3BP-3214, Ac-Met-[Cys(3MeBn)-Gly-Pro-Thr-Glu-Phe-Cys]-Asp-His-Phe-Arg-Asp-NH2] (Ac-MCGPTEFCDHFRD-NH2; linker 2-8 via mXylylene) |  |  | < 10 | < 10 |
